From US20260356856A1, “KRAS G12S AND G12C INHIBITORS” (MIRATI THERAPEUTICS, INC., priority 2023, published 2026)

What was measured:
[1] = target: T1, KRas-mediated phosphorylation of ERK in A549 cells (Homo sapiens, UniProt P01116, G12S); assay: Inhibition of KRas-mediated phosphorylation of ERK (HTRF), A549 cells; type: cell-based; details: HTRF pERK, 3 h incubation
T1 construct: pERK HTRF read-out

[2] = target: T2, KRas-mediated phosphorylation of ERK in MKN1 cells (Homo sapiens, UniProt P01116); assay: Inhibition of KRas-mediated phosphorylation of ERK (HTRF), MKN1 cells; type: cell-based; details: MKN1 cells (KRas WT); HTRF pERK; 3 h incubation
T2 construct: pERK HTRF read-out
T2 sequence (P01116 1-188 isoform P01116-2): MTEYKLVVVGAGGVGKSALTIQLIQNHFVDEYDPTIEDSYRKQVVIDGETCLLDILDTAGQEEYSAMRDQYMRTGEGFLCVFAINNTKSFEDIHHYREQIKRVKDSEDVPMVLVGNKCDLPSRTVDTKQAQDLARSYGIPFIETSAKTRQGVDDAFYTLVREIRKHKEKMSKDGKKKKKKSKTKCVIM
Protocol: Inhibition of KRas Phosphorylation of ERK (HTRF) by Exemplary Compounds of Formula (Ia) or (Ib)
Cisbio HTRF Advanced pERK Assay Catalog #64AERPEH • Cells: MKN1, PSN1 • Procedure: • 1. Day 1: Seed 6,000 cells/well −25 μl/well in 384-well white solid bottom plate; RPM1_10% FBS. Incubate overnight at 37 °C/5% CO2. • 2.

KRas G12C = target: T3, KRas G12C (Homo sapiens, UniProt P01116, G12C); assay: KRas binding assay, TR-FRET displacement of Cy5 labelled tracer; details: 60-minute incubation at room temperature, 1% DMSO, pH 7.5
T3 construct: Biotinylated KRas (corresponding to amino acids 1-169, produced at Accelegan Inc.); biotin (biotinylated); purchased Accelegan Inc
T3 sequence (P01116 1-169 isoform P01116-2 G12C): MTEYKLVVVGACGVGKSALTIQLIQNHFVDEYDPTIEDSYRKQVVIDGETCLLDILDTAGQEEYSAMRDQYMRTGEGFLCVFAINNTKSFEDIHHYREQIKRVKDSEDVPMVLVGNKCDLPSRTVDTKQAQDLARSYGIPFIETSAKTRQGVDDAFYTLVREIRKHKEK
Protocol: (§1) This Example illustrates that exemplary compounds of the present invention bind to KRas and are capable of displacing a labeled tracer ligand occupying the KRas binding site. KRas^WT, KRas^G12A, KRas^G12C, KRas^G12D, KRas^G12R, KRas^G12S, KRas^G12V, KRas^G13D, or KRas^Q61H was used in the assay.
(§2) The ability of a compound to bind to KRas was measured using a TR-FRET displacement assay. Biotinylated KRas (corresponding to amino acids 1-169, produced at Accelegan Inc.) was incubated with custom made Cy5 labelled tracer, terbium streptavidin (Cisbio Inc.) and compound (1% DMSO final) in buffer (50 mM HEPES, pH 7.5, 5 mM MgCl2, 0.005% Tween-20 and 1 mM DTT). After a 60-minute incubation at room temperature, the reaction was measured using a BMG LABTECH CLARIO star Plus via TR-FRET. […] The POC values were fit to a 4-parameter IC50 equation and the IC50 value reported.

KRas G12S = target: T4, KRas G12S (Homo sapiens, UniProt P01116, G12S); assay: as above; details: 60-minute incubation at room temperature, 1% DMSO, pH 7.5
T4 construct: Biotinylated KRas (corresponding to amino acids 1-169, produced at Accelegan Inc.); biotin (biotinylated); purchased Accelegan Inc
T4 sequence (P01116 1-169 isoform P01116-2 G12S): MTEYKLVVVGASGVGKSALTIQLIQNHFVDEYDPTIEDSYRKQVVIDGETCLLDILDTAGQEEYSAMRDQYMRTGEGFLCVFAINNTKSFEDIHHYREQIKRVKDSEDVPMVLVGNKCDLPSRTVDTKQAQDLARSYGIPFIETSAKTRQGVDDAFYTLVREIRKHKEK
Protocol: as §1, §2

KRas WT = target: T5, KRas WT (Homo sapiens, UniProt P01116); assay: as above; details: 60-minute incubation at room temperature, 1% DMSO, pH 7.5
T5 construct: Biotinylated KRas (corresponding to amino acids 1-169, produced at Accelegan Inc.); biotin (biotinylated); purchased Accelegan Inc
T5 sequence (P01116 1-169 isoform P01116-2): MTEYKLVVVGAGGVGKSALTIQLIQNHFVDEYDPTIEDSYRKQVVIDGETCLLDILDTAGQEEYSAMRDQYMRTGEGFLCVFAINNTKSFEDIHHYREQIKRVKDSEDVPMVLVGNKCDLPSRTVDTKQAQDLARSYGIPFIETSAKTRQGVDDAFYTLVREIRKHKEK
Protocol: as §1, §2

T1 sequence (P01116 1-188 isoform P01116-2 G12S): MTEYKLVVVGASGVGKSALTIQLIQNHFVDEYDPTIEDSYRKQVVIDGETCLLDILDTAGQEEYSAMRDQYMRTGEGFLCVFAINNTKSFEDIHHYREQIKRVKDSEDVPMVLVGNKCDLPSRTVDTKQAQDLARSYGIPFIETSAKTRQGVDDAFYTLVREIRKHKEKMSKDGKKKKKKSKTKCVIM

Row | Compound | IC50 [1] [nM] | IC50 [2] [nM] | IC50 (KRas G12C) [nM] | IC50 (KRas G12S) [nM] | IC50 (KRas WT) [nM]
1 | CCc1c(F)ccc2cc(O)cc(-c3ncc4c(N5CC[C@H]6[C@@H](C5)[C@H]6C(=O)n5ccc(C)n5)nc(OC[C@@]56CCCN5C[C@H](F)C6)nc4c3F)c12 (stereo in doubt) [Example 99, (cis-3-(7-(8-ethyl-7-fluoro-3-hydroxynaphthalen-1-yl)-8-fluoro-2-(((2R,7aS)-2-fluorotetrahydro-1H-pyrrolizin-7a(5H)-yl)methoxy)pyrido[4,3-d]pyrimidin-4-yl)-3-azabicyclo[4.1.0]heptan-7-yl)(3-methyl-1H-pyrazol-1-yl)methanone] | 54 | 1050 | 58 | 26 | –
2 | Cc1ccn(C(=O)[C@@H]2[C@@H]3CCN(c4nc(OC[C@@]56CCCN5C[C@H](F)C6)nc5c(F)c(-c6ccc(F)c7sc(N)c(C#N)c67)c(Cl)cc45)C[C@@H]32)n1 [Example 179, 2-amino-4-(6-chloro-8-fluoro-2-(((2R,7aS)-2-fluorotetrahydro-1H-pyrrolizin-7a(5H)-yl)methoxy)-4-((1S,6R)-7-(3-methyl-1H-pyrazole-1-carbonyl)-3-azabicyclo[4.1.0]heptan-3-yl)quinazolin-7-yl)-7-fluorobenzo[b]thiophene-3-carbonitrile] | 167 | 110 | 64 | 42 | 26
3 | Cc1ccn(C(=O)[C@@H]2CCCN(c3nc(OC[C@@]45CCCN4C[C@H](F)C5)nc4c(F)c(-c5ccc(F)c6sc(N)c(C#N)c56)c(Cl)cc34)CC2)n1 (atropisomer, axis not shown; (aS)) [Example 171, 2-amino-4-((R)-6-chloro-8-fluoro-2-(((2R,7aS)-2-fluorotetrahydro-1H-pyrrolizin-7a(5H)-yl)methoxy)-4-((R)-4-(3-methyl-1H-pyrazole-1-carbonyl)azepan-1-yl)quinazolin-7-yl)-7-fluorobenzo[b]thiophene-3-carbonitrile] | 6440 | 3040 | – | – | –
4 | Cc1ccn(C(=O)[C@H]2CCCN(c3nc(OC[C@@]45CCCN4C[C@H](F)C5)nc4c(F)c(-c5ccc(F)c6sc(N)c(C#N)c56)c(Cl)cc34)CC2)n1 (atropisomer, axis not shown; (aS)) [Example 169, 2-amino-4-((R)-6-chloro-8-fluoro-2-(((2R,7aS)-2-fluorotetrahydro-1H-pyrrolizin-7a(5H)-yl)methoxy)-4-((S)-4-(3-methyl-1H-pyrazole-1-carbonyl)azepan-1-yl)quinazolin-7-yl)-7-fluorobenzo [b]thiophene-3-carbonitrile] | 534 | 9480 | – | – | –
5 | CCc1c(F)ccc2cc(O)cc(-c3ncc4c(N5CCN(C(=O)n6ccc(C)n6)C(CC#N)C5)nc(OC[C@@]56CCCN5C[C@H](F)C6)nc4c3F)c12 (stereo partly drawn) [Example 126, 2-(4-(7-(8-ethyl-7-fluoro-3-hydroxynaphthalen-1-yl)-8-fluoro-2-(((2R,7aS)-2-fluorotetrahydro-1H-pyrrolizin-7a(5H)-yl)methoxy)pyrido[4,3-d]pyrimidin-4-yl)-1-(3-methyl-1H-pyrazole-1-carbonyl)piperazin-2-yl) acetonitrile] | 9800 | – | 84 | 88 | 8
6 | O=C(Oc1ccccc1)C1CCN(c2nc(OCC34CCCN3CCC4)nc3c(F)c(-c4cccc5cccc(F)c45)ncc23)CC1 [Example 44, phenyl 1-(8-fluoro-7-(8-fluoronaphthalen-1-yl)-2-((tetrahydro-1H-pyrrolizin-7a(5H)-yl)methoxy)pyrido[4,3-d]pyrimidin-4-yl)piperidine-4-carboxylate] | – | – | 1770 | 81100 | > 100000
7 | O=C(OCC(F)(F)F)[C@@H]1[C@@H]2CC[C@H]1CN(c1nc(OCC34CCCN3CCC4)nc3c(F)c(-c4cccc5cccc(F)c45)ncc13)C2 [Example 18, 2,2,2-trifluoroethyl (1R,5S,8r)-3-(8-fluoro-7-(8-fluoronaphthalen-1-yl)-2-((tetrahydro-1H-pyrrolizin-7a(5H)-yl)methoxy)pyrido[4,3-d]pyrimidin-4-yl)-3-azabicyclo[3.2.1]octane-8-carboxylate] | – | – | 42100 | 30000 | 7970
8 | O=C(Oc1cccc(F)c1F)C1CCN(c2nc(OCC34CCCN3CCC4)nc3c(F)c(-c4cccc5cccc(F)c45)ncc23)CC1 [Example 34, 2,3-difluorophenyl 1-(8-fluoro-7-(8-fluoronaphthalen-1-yl)-2-((tetrahydro-1H-pyrrolizin-7a(5H)-yl)methoxy)pyrido[4,3-d]pyrimidin-4-yl)piperidine-4-carboxylate] | – | – | 7890 | > 100000 | > 100000
9 | O=C(Oc1ccc(F)c(F)c1)[C@@H]1[C@@H]2CC[C@H]1CN(c1nc(OCC34CCCN3CCC4)nc3c(F)c(-c4cccc5cccc(F)c45)ncc13)C2 [Example 23, 3,4-difluorophenyl (1R,5S,8r)-3-(8-fluoro-7-(8-fluoronaphthalen-1-yl)-2-((tetrahydro-1H-pyrrolizin-7a(5H)-yl)methoxy)pyrido[4,3-d]pyrimidin-4-yl)-3-azabicyclo[3.2.1]octane-8-carboxylate] | – | – | 34800 | 61600 | 11800
10 | O=C(Oc1cccnc1)C1CCN(c2nc(OCC34CCCN3CCC4)nc3c(F)c(-c4cccc5cccc(F)c45)ncc23)CC1 [Example 32, pyridin-3-yl 1-(8-fluoro-7-(8-fluoronaphthalen-1-yl)-2-((tetrahydro-1H-pyrrolizin-7a(5H)-yl)methoxy)pyrido[4,3-d]pyrimidin-4-yl)piperidine-4-carboxylate] | – | – | 128 | 43300 | > 100000
11 | O=C(Oc1ccccc1)[C@@H]1[C@@H]2CC[C@H]1CN(c1nc(OCC34CCCN3CCC4)nc3c(F)c(-c4cccc5cccc(F)c45)ncc13)C2 [Example 26, phenyl (1R,5S,8r)-3-(8-fluoro-7-(8-fluoronaphthalen-1-yl)-2-((tetrahydro-1H-pyrrolizin-7a(5H)-yl)methoxy)pyrido[4,3-d]pyrimidin-4-yl)-3-azabicyclo[3.2.1]octane-8-carboxylate] | – | – | 92800 | 75600 | 10600
12 | COC(=O)C1CCN(c2nc(OCC34CCCN3CCC4)nc3c(F)c(-c4cccc5cccc(F)c45)ncc23)CC1 [Example 41, methyl 1-(8-fluoro-7-(8-fluoronaphthalen-1-yl)-2-((tetrahydro-1H-pyrrolizin-7a(5H)-yl)methoxy)pyrido[4,3-d]pyrimidin-4-yl)piperidine-4-carboxylate] | – | – | 18200 | 17600 | 12300
13 | N#Cc1cccc(OC(=O)[C@@H]2[C@@H]3CC[C@H]2CN(c2nc(OCC45CCCN4CCC5)nc4c(F)c(-c5cccc6cccc(F)c56)ncc24)C3)c1 [Example 22, 3-cyanophenyl (1R,5S,8r)-3-(8-fluoro-7-(8-fluoronaphthalen-1-yl)-2-((tetrahydro-1H-pyrrolizin-7a(5H)-yl)methoxy)pyrido[4,3-d]pyrimidin-4-yl)-3-azabicyclo[3.2.1]octane-8-carboxylate] | – | – | 95200 | > 100000 | 14100
14 | O=C(Oc1ccccc1)C1CCCN(c2nc(OCC34CCCN3CCC4)nc3c(F)c(-c4cccc5cccc(F)c45)ncc23)C1 (stereo not drawn) [Example 51, phenyl 1-(8-fluoro-7-(8-fluoronaphthalen-1-yl)-2-((tetrahydro-1H-pyrrolizin-7a(5H)-yl)methoxy)pyrido[4,3-d]pyrimidin-4-yl)piperidine-3-carboxylate] | – | – | 30300 | 56500 | 25400
15 | CCc1c(F)ccc2cc(O)cc(-c3ncc4c(N5CCN(C(=O)n6ccc(C)n6)C(C(F)F)C5)nc(OC[C@@]56CCCN5C[C@H](F)C6)nc4c3F)c12 (stereo partly drawn) [Example 125, (2-(difluoromethyl)-4-(7-(8-ethyl-7-fluoro-3-hydroxynaphthalen-1-yl)-8-fluoro-2-(((2R,7aS)-2-fluorotetrahydro-1H-pyrrolizin-7a(5H)-yl)methoxy)pyrido[4,3-d]pyrimidin-4-yl)piperazin-1-yl)(3-methyl-1H-pyrazol-1-yl)methanone] | 6810 | – | 96 | 168 | 84
